Assay results as given in BindingDB's records for PubMed 11306677 (Upr 9023, 2001).
Where “and” joins values, the source holds several entries; their conditions need not be identical. Equal values may be shown once.

How the values were obtained:
[1] = molecular target: Metabotropic glutamate receptor 2 (Homo sapiens, UniProt Q14416)
[2] = molecular target: Metabotropic glutamate receptor 1 (Rattus norvegicus, UniProt P23385)
[3] = molecular target: Metabotropic glutamate receptor 5 (Rattus norvegicus, UniProt P31424)
Metabotropic glutamate receptor 5, sequence (P31424 whole entry): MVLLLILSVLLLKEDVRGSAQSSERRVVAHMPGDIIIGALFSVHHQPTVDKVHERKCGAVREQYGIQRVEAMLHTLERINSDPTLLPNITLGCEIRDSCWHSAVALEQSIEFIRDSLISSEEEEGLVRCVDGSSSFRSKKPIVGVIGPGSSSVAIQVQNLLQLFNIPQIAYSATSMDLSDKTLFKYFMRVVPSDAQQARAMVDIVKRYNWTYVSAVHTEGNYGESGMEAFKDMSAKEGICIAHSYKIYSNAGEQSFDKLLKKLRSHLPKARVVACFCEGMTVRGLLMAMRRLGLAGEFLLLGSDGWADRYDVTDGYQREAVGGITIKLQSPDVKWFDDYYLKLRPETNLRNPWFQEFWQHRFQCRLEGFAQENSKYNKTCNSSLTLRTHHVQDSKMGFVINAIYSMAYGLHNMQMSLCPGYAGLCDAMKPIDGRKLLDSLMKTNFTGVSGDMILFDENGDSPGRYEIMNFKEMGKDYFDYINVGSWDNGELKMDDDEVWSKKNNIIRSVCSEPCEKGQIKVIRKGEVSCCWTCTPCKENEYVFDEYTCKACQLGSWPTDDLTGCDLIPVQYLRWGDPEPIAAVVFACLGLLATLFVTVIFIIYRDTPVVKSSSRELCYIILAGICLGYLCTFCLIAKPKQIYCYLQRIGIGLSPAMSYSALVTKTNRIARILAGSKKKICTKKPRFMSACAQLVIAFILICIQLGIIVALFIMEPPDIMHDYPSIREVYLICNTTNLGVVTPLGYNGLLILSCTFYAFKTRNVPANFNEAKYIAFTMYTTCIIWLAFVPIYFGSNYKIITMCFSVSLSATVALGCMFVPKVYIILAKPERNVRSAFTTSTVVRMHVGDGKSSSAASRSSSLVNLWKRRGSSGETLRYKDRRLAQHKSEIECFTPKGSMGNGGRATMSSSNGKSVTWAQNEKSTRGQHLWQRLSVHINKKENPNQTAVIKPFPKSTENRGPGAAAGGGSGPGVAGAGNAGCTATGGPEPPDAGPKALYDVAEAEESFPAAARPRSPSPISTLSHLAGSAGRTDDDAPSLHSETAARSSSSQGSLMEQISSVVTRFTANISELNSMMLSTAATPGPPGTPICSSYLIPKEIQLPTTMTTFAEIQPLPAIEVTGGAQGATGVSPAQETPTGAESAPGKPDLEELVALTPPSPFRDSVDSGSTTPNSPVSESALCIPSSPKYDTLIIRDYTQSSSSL

Metabotropic glutamate receptor 2, sequence (Q14416 whole entry): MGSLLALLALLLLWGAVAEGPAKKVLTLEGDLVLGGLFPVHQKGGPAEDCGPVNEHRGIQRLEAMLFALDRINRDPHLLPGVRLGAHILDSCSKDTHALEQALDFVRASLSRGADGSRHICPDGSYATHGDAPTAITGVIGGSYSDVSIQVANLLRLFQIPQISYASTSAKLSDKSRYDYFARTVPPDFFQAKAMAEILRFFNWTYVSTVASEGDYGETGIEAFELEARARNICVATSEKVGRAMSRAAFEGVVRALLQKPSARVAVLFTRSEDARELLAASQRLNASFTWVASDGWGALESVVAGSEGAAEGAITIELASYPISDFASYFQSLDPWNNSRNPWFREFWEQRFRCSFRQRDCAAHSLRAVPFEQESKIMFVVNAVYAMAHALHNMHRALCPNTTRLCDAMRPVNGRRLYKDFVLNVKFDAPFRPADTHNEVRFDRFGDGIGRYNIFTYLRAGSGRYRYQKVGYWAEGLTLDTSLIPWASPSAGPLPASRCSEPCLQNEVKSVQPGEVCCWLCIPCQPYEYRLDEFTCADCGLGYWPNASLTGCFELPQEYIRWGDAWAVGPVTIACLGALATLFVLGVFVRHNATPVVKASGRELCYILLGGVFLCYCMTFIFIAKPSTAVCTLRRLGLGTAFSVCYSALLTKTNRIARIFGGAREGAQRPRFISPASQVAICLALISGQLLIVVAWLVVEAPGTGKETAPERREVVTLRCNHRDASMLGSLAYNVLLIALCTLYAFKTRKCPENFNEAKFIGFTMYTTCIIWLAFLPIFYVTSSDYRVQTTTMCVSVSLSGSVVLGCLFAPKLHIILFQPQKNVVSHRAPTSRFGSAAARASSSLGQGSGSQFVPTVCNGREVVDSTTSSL
Metabotropic glutamate receptor 1, sequence (P23385 whole entry): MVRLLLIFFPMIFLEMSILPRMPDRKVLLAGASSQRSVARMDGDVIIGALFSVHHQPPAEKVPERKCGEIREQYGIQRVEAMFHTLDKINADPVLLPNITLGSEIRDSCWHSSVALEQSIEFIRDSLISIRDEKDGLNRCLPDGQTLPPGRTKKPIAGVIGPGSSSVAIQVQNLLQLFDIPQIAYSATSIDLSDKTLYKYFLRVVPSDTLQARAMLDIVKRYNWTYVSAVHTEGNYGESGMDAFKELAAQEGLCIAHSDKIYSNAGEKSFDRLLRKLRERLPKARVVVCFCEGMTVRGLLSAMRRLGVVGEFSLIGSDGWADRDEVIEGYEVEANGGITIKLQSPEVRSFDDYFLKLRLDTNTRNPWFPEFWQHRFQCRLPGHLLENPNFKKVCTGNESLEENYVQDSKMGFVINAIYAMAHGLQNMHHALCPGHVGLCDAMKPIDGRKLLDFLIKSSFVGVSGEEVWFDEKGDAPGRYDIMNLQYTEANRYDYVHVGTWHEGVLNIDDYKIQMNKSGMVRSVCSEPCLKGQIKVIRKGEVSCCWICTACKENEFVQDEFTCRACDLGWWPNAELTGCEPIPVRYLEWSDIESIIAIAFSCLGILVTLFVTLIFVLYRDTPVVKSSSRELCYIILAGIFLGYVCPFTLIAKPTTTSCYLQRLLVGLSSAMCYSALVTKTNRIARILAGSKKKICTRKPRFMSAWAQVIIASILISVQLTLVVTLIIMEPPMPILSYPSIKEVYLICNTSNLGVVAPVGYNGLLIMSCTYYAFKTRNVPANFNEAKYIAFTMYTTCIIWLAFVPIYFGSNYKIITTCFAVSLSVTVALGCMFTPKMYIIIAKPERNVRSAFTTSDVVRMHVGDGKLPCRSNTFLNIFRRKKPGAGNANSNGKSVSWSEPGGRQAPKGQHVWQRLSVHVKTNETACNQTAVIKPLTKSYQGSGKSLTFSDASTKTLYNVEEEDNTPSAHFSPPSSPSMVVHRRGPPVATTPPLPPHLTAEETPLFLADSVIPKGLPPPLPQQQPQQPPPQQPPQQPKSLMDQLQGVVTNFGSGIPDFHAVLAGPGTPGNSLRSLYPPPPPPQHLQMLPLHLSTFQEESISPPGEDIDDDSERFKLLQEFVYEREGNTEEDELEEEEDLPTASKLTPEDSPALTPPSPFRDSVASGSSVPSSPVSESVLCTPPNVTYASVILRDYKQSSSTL

For `C=C1C[C@@H]2COC(=O)[C@]2(Cc2ccc3ccccc3c2)C1`, the Ki [1] was 140 nM, the Ki [2] was > 10000 nM and the Ki [3] was 240 nM and 500 nM.
